For one test, the target named is T1, NS3-NS4A protease (Hepatitis C virus genotype 1a, UniProt P27958).
T1 construct: Recombinant E. coli or Baculovirus full-length NS3 was diluted to 3.33 μM with assay buffer; made in house; host or cells: E. coli or baculovirus (BV) system
Kind of test: NS3-NS4A protease assay (NS3 inhibition assay, RETS1 substrate), Section B. Type of test: biochemical. As to conditions: read-out: NS3-NS4A IC50. The method in brief:
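Kinetic fluorescence read (335 nm excitation, 495 nm emission, 30 min) of RETS1 cleavage by NS3/NS4A-2 complex, 2 nM E. coli or 3 nM baculovirus NS3, after 10 min room-temperature compound pre-incubation. Four-parameter-fit IC50s converted to Ki by Cheng–Prusoff, Ki=IC50/(1+[S]/Km).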

For test [1], the system named is HCV sub-genomic replicon, GS4.3. Kind of test: Quantitation by ELISA of NPTII in the HCV sub-genomic replicon, GS4.3, Section B. The note with it: Hepatitis C virus; GS4.3 cells, 72 h incubation; read-out: Replicon EC50. The test is classed as cell-based. In short, it runs like this:
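NPTII marker protein in lysates was quantified by ELISA read at 450 nm after 72 h inhibitor exposure (3-fold series, final DMSO 1%, G418-free medium) of HuH-7 cells stably harbouring the subgenomic HCV replicon. Values relative to DMSO-treated controls; 4-parameter curves gave EC50.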

T1 sequence (P27958 1027-1657): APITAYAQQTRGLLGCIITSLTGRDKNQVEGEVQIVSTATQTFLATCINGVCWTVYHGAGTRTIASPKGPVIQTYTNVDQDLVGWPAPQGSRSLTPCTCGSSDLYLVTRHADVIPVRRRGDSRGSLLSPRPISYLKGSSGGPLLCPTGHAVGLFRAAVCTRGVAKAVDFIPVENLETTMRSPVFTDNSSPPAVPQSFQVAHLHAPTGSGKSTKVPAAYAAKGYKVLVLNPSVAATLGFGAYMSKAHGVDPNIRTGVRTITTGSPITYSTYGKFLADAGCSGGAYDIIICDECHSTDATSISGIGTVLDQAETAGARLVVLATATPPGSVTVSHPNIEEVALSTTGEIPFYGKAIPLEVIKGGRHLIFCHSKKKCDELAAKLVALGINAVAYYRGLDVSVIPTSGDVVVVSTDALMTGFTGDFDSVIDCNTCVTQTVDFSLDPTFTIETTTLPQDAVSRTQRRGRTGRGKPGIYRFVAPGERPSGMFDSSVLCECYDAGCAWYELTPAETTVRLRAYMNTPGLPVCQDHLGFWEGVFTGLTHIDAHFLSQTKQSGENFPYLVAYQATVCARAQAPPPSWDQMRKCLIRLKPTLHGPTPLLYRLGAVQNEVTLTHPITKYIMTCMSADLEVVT

As for `C[C@@H]1CN(C(=O)O[C@@H]2C[C@H]3C(=O)N[C@]4(C(=O)NS(=O)(=O)C5CC5)C[C@H]4/C=C\CCCCC[C@H](NC(=O)OC(C)(C)C)C(=O)N3C2)Cc2ccccc21` [AR00333463, (1S,4R,6S,14S,18R)-4S-Methyl-3,4-dihydro-1H-isoquinoline-2-carboxylic acid 14-tert-butoxycarbonylamino-4-cyclopropanesulfonylaminocarbonyl-2,15-dioxo-3,16-diaza-tricyclo[14.3.0.0^4,6]nonadec-7-en-18-yl ester], on NS3-NS4A protease, the IC50 (usually the point on the concentration scale where inhibition reaches its midpoint) is less than 100 nM. Also, the EC50 (as a rule, the concentration at which the effect is half-maximal) in test [1] was less than 100 nM.
As to `CC(C)S(=O)(=O)NC(=O)[C@@]12C[C@H]1/C=C\CCCCC[C@H](NC(=O)OC(C)(C)C)C(=O)N1C[C@H](OC(=O)N3Cc4ccccc4C3)C[C@H]1C(=O)N2` [AR00333801, (1S,4R,6S,14S,18R)-1,3-Dihydro-isoindole-2-carboxylic acid 14-tert-butoxycarbonylamino-2,15-dioxo-4-(propane-2-sulfonylaminocarbonyl)-3,16-diaza-tricyclo[14.3.0.0^4,6]nonadec-7-en-18-yl ester], at NS3-NS4A protease, the IC50 is less than 100 nM. Moreover, the half-maximal effective concentration (EC50) in test [1] is less than 100 nM.
As for `CC(C)(C)OC(=O)N[C@H]1CCCCC/C=C\[C@@H]2C[C@@]2(C(=O)NS(=O)(=O)c2ccccc2)NC(=O)[C@@H]2C[C@@H](OC(=O)N3Cc4ccccc4C3)CN2C1=O` [AR00333802, (1S,4R,6S,14S,18R)-1,3-Dihydro-isoindole-2-carboxylic acid 4-benzenesulfonylaminocarbonyl-14-tert-butoxycarbonylamino-2,15-dioxo-3,16-diaza-tricyclo[14.3.0.0^4,6]nonadec-7-en-18-yl ester], the IC50 on NS3-NS4A protease was less than 100 nM. Besides, the EC50 in test [1] is less than 100 nM.
Turning to `CC(C)(C)OC(=O)N[C@H]1CCCCC/C=C\[C@@H]2C[C@@]2(C(=O)NS(C)(=O)=O)NC(=O)[C@@H]2C[C@@H](OC(=O)N3Cc4ccccc4C3)CN2C1=O` [AR00333803, (1S,4R,6S,14S,18R)-1,3-Dihydro-isoindole-2-carboxylic acid 14-tert-butoxycarbonylamino-4-methanesulfonylaminocarbonyl-2,15-dioxo-3,16-diaza-tricyclo[14.3.0.0^4,6]nonadec-7-en-18-yl ester], the IC50 on NS3-NS4A protease was less than 100 nM. Also, in test [1], the EC50 is less than 1000 nM.
For `O=C(N[C@H]1CCCCCC=C[C@@H]2C[C@@]2(C(=O)NS(=O)(=O)C2CC2)NC(=O)[C@@H]2C[C@@H](OC(=O)N3Cc4ccccc4C3)CN2C1=O)OC1CCCC1` [AR00333831, (1S,4R,6S,14S,18R)-1,3-Dihydro-isoindole-2-carboxylic acid 14-cyclopentyloxycarbonylamino-4-cyclopropanesulfonylaminocarbonyl-2,15-dioxo-3,16-diaza-tricyclo[14.3.0.0^4,6]nonadec-7-en-18-yl ester], in that order: less than 100 nM and less than 100 nM.
On the same counts, the results for `COCC1c2ccc(OC)cc2CCN1C(=O)O[C@@H]1C[C@H]2C(=O)N[C@]3(C(=O)O)C[C@H]3/C=C\CCCCC[C@H](NC(=O)OC(C)(C)C)C(=O)N2C1` (stereo partly drawn) [AR00333842, (1S,4R,6S,14S,18R)-14-tert-Butoxycarbonylamino-18-(6-methoxy-1-methoxymethyl-3,4-dihydro-1H-isoquinoline-2-carbonyloxy)-2,15-dioxo-3,16-diaza-tricyclo[14.3.0.0^4,6]nonadec-7-ene-4-carboxylic acid] are less than 1000 nM and less than 10000 nM.
On the same counts, the results for `CC(C)(C)OC(=O)N[C@H]1CCCCC/C=C\[C@@H]2C[C@@]2(C(=O)NS(=O)(=O)c2ccc(Cl)s2)NC(=O)[C@@H]2C[C@@H](OC(=O)N3Cc4ccccc4C3)CN2C1=O` [AR00334188, (1S,4R,6S,14S,18R)-1,3-Dihydro-isoindole-2-carboxylic acid 14-tert-butoxycarbonylamino-4-(5-chloro-thiophene-2-sulfonylaminocarbonyl)-2,15-dioxo-3,16-diaza-tricyclo[14.3.0.0^4,6]nonadec-7-en-18-yl ester] are less than 100 nM and less than 1000 nM.

These data come from patent publication US7491794B2, “Macrocyclic compounds as inhibitors of viral replication” (Intermune, Inc., priority 2003, dated 2009).
